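GI50: concentration for 50% inhibition of growth. TGI: concentration producing complete growth inhibition.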
Assays:
Test in all cases: growth of human tumour cells (NCI), 384-well format
[1] = tested on: NCI-H23 lung
[2] = tested on: SF-295 CNS
[3] = tested on: NCI-H522 lung
[4] = tested on: MDA-MB-231 breast
[5] = tested on: UO-31 renal
[6] = tested on: OVCAR-3 ovarian
[7] = tested on: HOP-92 NSCLC
[8] = tested on: CAKI-1 renal
[9] = tested on: LOX IMVI melanoma
[10] = tested on: ACHN renal
[11] = tested on: SN12C renal
[12] = tested on: MCF7 breast
[13] = tested on: BT-549 breast
[14] = tested on: RXF 393 renal
[15] = tested on: NCI-H226 lung
[16] = tested on: EKVX NSCLC
[17] = tested on: U251 glioblastoma
[18] = tested on: NCI-H322M lung
[19] = tested on: OVCAR-5 ovarian
[20] = tested on: SNB-75 CNS
[21] = tested on: HL-60(TB) leukemia
[22] = tested on: OVCAR-8 ovarian
[23] = tested on: UACC-257 melanoma
[24] = tested on: IGROV1 ovarian
[25] = tested on: SF-268 CNS
[26] = tested on: HS 578T breast
[27] = tested on: SNB-19 CNS
[28] = tested on: PC-3 prostate
[29] = tested on: MOLT-4 leukemia
[30] = tested on: SK-MEL-5 melanoma
[31] = tested on: MALME-3M melanoma
[32] = tested on: A498 renal
[33] = tested on: DU-145 prostate
[34] = tested on: HOP-62 NSCLC
[35] = tested on: SK-OV-3 ovarian
[36] = tested on: CCRF-CEM leukemia
[37] = tested on: A549 NSCLC
[38] = tested on: HCT-15 colon
[39] = tested on: MDA-MB-435 melanoma
[40] = tested on: SK-MEL-28 melanoma
[41] = tested on: HCT-116 colon
[42] = tested on: T-47D breast
[43] = tested on: SF-539 CNS
[44] = tested on: SW-620 colon
[45] = tested on: TK-10 renal
[46] = tested on: NCI-H460 NSCLC
[47] = tested on: OVCAR-4 ovarian
[48] = tested on: NCI/ADR-RES ovarian
[49] = tested on: HCC-2998 colon
[50] = tested on: 786-0 renal
[51] = tested on: SR leukemia
[52] = tested on: HT29 colon
[53] = tested on: COLO 205 colon
[54] = tested on: M14 melanoma
[55] = tested on: RPMI-8226 leukemia
[56] = tested on: KM12 colon
[57] = tested on: K-562 leukemia
[58] = tested on: MDA-MB-468 breast
[59] = tested on: SK-MEL-2 melanoma
[60] = tested on: UACC-62 melanoma

Cn1cc(-c2ccc3nnc(C(F)(F)c4ccc5ncccc5c4)n3n2)cn1
GI50 [1]: 25 µM
TGI [1]: > 100 µM
GI50 [2]: 2.06 µM
TGI [2]: > 100 µM
GI50 [3]: 41.6 µM
TGI [3]: > 100 µM
GI50 [4]: 53.5 µM
TGI [4]: > 100 µM
GI50 [5]: 58.6 µM
TGI [5]: > 100 µM
GI50 [6]: 61.8 µM
TGI [6]: > 100 µM
GI50 [7]: 39.7 µM
TGI [7]: > 100 µM
GI50 [8]: 46.4 µM
TGI [8]: > 100 µM
GI50 [9]: 68.5 µM
TGI [9]: > 100 µM
GI50 [10]: 46.1 µM
TGI [10]: > 100 µM
GI50 [11]: 45.2 µM
TGI [11]: > 100 µM
GI50 [12]: 41.8 µM
TGI [12]: > 100 µM
GI50 [13]: 38.1 µM
TGI [13]: > 100 µM
GI50 [14]: 25.2 µM
TGI [14]: 72.7 µM
GI50 [15]: 56.3 µM
TGI [15]: > 100 µM
GI50 [16]: 52.6 µM
TGI [16]: > 100 µM
GI50 [17]: 66.3 µM
TGI [17]: > 100 µM
GI50 [18]: 62.9 µM
TGI [18]: > 100 µM
GI50 [19]: 59.8 µM
TGI [19]: > 100 µM
GI50 [20]: 43.1 µM
TGI [20]: > 100 µM
GI50 [21]: 36.3 µM
TGI [21]: > 100 µM
GI50 [22]: 61.4 µM
TGI [22]: > 100 µM
GI50 [23]: > 100 µM
TGI [23]: > 100 µM
GI50 [24]: 58.2 µM
TGI [24]: > 100 µM
GI50 [25]: 98.1 µM
TGI [25]: > 100 µM
GI50 [26]: 35.3 µM
TGI [26]: > 100 µM
GI50 [27]: 67.3 µM
TGI [27]: > 100 µM
GI50 [28]: 52.9 µM
TGI [28]: > 100 µM
GI50 [29]: 17.6 µM
TGI [29]: 36.4 µM
GI50 [30]: 29.7 µM
TGI [30]: > 100 µM
GI50 [31]: 65 µM
TGI [31]: > 100 µM
GI50 [32]: 63.2 µM
TGI [32]: > 100 µM
GI50 [33]: 59.1 µM
TGI [33]: > 100 µM
GI50 [34]: 41.2 µM
TGI [34]: > 100 µM
GI50 [35]: 75.5 µM
TGI [35]: > 100 µM
GI50 [36]: 48.5 µM
TGI [36]: > 100 µM
GI50 [37]: 85.5 µM
TGI [37]: > 100 µM
GI50 [38]: 60.5 µM
TGI [38]: > 100 µM
GI50 [39]: > 100 µM
TGI [39]: > 100 µM
GI50 [40]: > 100 µM
TGI [40]: > 100 µM
GI50 [41]: 49.2 µM
TGI [41]: > 100 µM
GI50 [42]: 41.1 µM
TGI [42]: > 100 µM
GI50 [43]: 56.3 µM
TGI [43]: > 100 µM
GI50 [44]: > 100 µM
TGI [44]: > 100 µM
GI50 [45]: 47.6 µM
TGI [45]: > 100 µM
GI50 [46]: 45.8 µM
TGI [46]: > 100 µM
GI50 [47]: 59.9 µM
TGI [47]: > 100 µM
GI50 [48]: 41.4 µM
TGI [48]: > 100 µM
GI50 [49]: 49.9 µM
TGI [49]: > 100 µM
GI50 [50]: 43.9 µM
TGI [50]: > 100 µM
GI50 [51]: 24.2 µM
TGI [51]: > 100 µM
GI50 [52]: 95.3 µM
TGI [52]: > 100 µM
GI50 [53]: 99 µM
TGI [53]: > 100 µM
GI50 [54]: > 100 µM
TGI [54]: > 100 µM
GI50 [55]: 23.7 µM
TGI [55]: 97.8 µM
GI50 [56]: 47.8 µM
TGI [56]: > 100 µM
GI50 [57]: 53.6 µM
TGI [57]: > 100 µM
GI50 [58]: 10.2 µM
TGI [58]: 59.6 µM

CS(=O)(=O)c1ccc(-c2cnc(NCc3ccco3)n3cnnc23)cc1
GI50 [1]: > 100 µM
TGI [1]: > 100 µM
GI50 [2]: > 100 µM
TGI [2]: > 100 µM
GI50 [3]: > 100 µM
TGI [3]: > 100 µM
GI50 [4]: > 100 µM
TGI [4]: > 100 µM
GI50 [5]: > 100 µM
TGI [5]: > 100 µM
GI50 [6]: > 100 µM
TGI [6]: > 100 µM
GI50 [7]: > 55.1 µM
TGI [7]: > 100 µM
GI50 [59]: > 100 µM
TGI [59]: > 100 µM
GI50 [8]: > 100 µM
TGI [8]: > 100 µM
GI50 [9]: 52.8 µM
TGI [9]: > 100 µM
GI50 [10]: > 100 µM
TGI [10]: > 100 µM
GI50 [11]: > 100 µM
TGI [11]: > 100 µM
GI50 [12]: > 100 µM
TGI [12]: > 100 µM
GI50 [13]: > 100 µM
TGI [13]: > 100 µM
GI50 [14]: > 76.7 µM
TGI [14]: > 100 µM
GI50 [15]: > 100 µM
TGI [15]: > 100 µM
GI50 [16]: > 100 µM
TGI [16]: > 100 µM
GI50 [17]: > 100 µM
TGI [17]: > 100 µM
GI50 [18]: > 100 µM
TGI [18]: > 100 µM
GI50 [19]: > 100 µM
TGI [19]: > 100 µM
GI50 [20]: > 100 µM
TGI [20]: > 100 µM
GI50 [21]: 72.2 µM
TGI [21]: > 100 µM
GI50 [22]: > 100 µM
TGI [22]: > 100 µM
GI50 [23]: 52.1 µM
TGI [23]: > 100 µM
GI50 [24]: > 100 µM
TGI [24]: > 100 µM
GI50 [25]: > 100 µM
TGI [25]: > 100 µM
GI50 [26]: > 100 µM
TGI [26]: > 100 µM
GI50 [27]: > 100 µM
TGI [27]: > 100 µM
GI50 [28]: > 100 µM
TGI [28]: > 100 µM
GI50 [29]: 49 µM
TGI [29]: > 100 µM
GI50 [30]: 37.2 µM
TGI [30]: > 100 µM
GI50 [31]: 16.9 µM
TGI [31]: 45.3 µM
GI50 [60]: 27.1 µM
TGI [60]: > 100 µM
GI50 [32]: > 100 µM
TGI [32]: > 100 µM
GI50 [33]: > 100 µM
TGI [33]: > 100 µM
GI50 [34]: > 100 µM
TGI [34]: > 100 µM
GI50 [35]: > 100 µM
TGI [35]: > 100 µM
GI50 [36]: > 85.5 µM
TGI [36]: > 100 µM
GI50 [37]: > 100 µM
TGI [37]: > 100 µM
GI50 [38]: > 100 µM
TGI [38]: > 100 µM
GI50 [39]: > 87.3 µM
TGI [39]: > 100 µM
GI50 [40]: 30.3 µM
TGI [40]: > 100 µM
GI50 [41]: > 100 µM
TGI [41]: > 100 µM
GI50 [42]: 66.3 µM
TGI [42]: > 100 µM
GI50 [43]: > 100 µM
TGI [43]: > 100 µM
GI50 [44]: > 100 µM
TGI [44]: > 100 µM
GI50 [45]: > 100 µM
TGI [45]: > 100 µM
GI50 [46]: > 100 µM
TGI [46]: > 100 µM
GI50 [47]: > 100 µM
TGI [47]: > 100 µM
GI50 [48]: > 100 µM
TGI [48]: > 100 µM
GI50 [49]: > 100 µM
TGI [49]: > 100 µM
GI50 [50]: > 100 µM
TGI [50]: > 100 µM
GI50 [51]: > 100 µM
TGI [51]: > 100 µM
GI50 [52]: 61.3 µM
TGI [52]: > 100 µM
GI50 [53]: 35.8 µM
TGI [53]: > 100 µM
GI50 [54]: 29.6 µM
TGI [54]: > 100 µM
GI50 [55]: 6.1 µM
TGI [55]: > 33.7 µM
GI50 [56]: > 100 µM
TGI [56]: > 100 µM
GI50 [57]: > 95.2 µM
TGI [57]: > 100 µM
GI50 [58]: 17.3 µM
TGI [58]: 49.3 µM
